# Assay results from US11873291B2, “Quinoline cGAS antagonist compounds” (ImmuneSensor Therapeutics, Inc., priority 2020, dated 2024).
# pIC50: −log10 of the molar value.
# Biological target: T1, recombinant human cGAS (aa147-522) (Homo sapiens, UniProt Q8N884)
# T1 construct: recombinant human cGAS (aa147-522); His6-SUMO (cleaved yes); made in house; host or cells: E. coli BL21/pLys
# Assay: In vitro inhibition assay of cGAS activity (ATP consumption, KinaseGlo Max)
# Type: biochemical
# Conditions: Table 2, read-out: cGAS Inhibition Results IC50
# Description: Expression and Purification of Recombinant cGAS Protein: cDNA encoding full-length or amino acids […] of human cGAS was inserted into a modified pET28a vector containing an in-frame His6-SUMO tag. The E. coli strain BL21/pLys harboring the plasmid was induced with 0.5 mM IPTG at 18° C. overnight. His6-SUMO tag was removed by a SUMO protease digestion following purification of the His6-SUMO-cGAS as described previously (Sun et al, 2013, Science 339, 786).
# In vitro inhibition assay of cGAS activity: A 60 μL mixture containing 20 mM Tris-Cl, pH 7.5, 5 mM MgCl2, 0.2 mg/mL BSA, 0.01 mg/mL Herring testis DNA, 6.6 μM ATP, 0.1 mM GTP, 1.5 μg/mL of recombinant human cGAS (aa147-522) and serial dilutions of a test compound in DMSO was added to a 96-well plate and incubated at 37° C. for 20 minutes. At the end of reaction, 40 μL of KinaseGlo Max (Promega) was added and chemiluminescence was measured with a luminometer. Inhibitory effect of a compound is evaluated by plotting percentage of ATP consumption against logarithm of compound concentrations. IC50 value was calculated using GraphPad Prism 8 (GraphPad Software, Inc.).
# The letter codes for cGAS IC50 include: A (<2 μM); B (2-30 μM); C (>30 μM).
# T1 sequence (Q8N884 147-522): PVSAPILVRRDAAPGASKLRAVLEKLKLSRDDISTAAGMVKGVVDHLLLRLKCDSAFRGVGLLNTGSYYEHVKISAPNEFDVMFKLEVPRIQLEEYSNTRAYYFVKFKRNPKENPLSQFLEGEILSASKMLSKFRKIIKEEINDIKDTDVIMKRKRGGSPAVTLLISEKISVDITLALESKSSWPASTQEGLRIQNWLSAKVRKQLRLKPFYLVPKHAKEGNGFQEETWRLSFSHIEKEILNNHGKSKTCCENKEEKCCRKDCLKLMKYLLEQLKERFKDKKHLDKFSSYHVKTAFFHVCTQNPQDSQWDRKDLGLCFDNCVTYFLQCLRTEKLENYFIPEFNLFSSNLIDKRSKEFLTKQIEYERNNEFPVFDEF
row,Compound,pIC50
1,Clc1ccc2c(-c3ccncc3)cc(-c3ccccc3)nc2c1 [I-70],< 4.52
2,Clc1ccc2c(-c3cncnc3)cc(-c3ccccc3)nc2c1 [I-71],< 4.52
3,Clc1ccc2c(-c3cc[nH]c3)cc(-c3ccccc3)nc2c1 [I-72],< 4.52
4,Oc1ccc(-c2cc(-c3ccccc3)nc3cc(Cl)ccc23)cn1 [I-73],< 4.52
5,"O=C(O)c1cccc(-c2cc(-c3ccn[nH]3)c3ccc(Cl)cc3n2)c1 [I-74, 3-(7-Chloro-4-(1H-pyrazol-5-yl)quinolin-2-yl)benzoic acid]",< 4.52
6,"O=C(O)c1cc(-c2cc(Cl)c3ccc(Cl)c(Cl)c3n2)ccc1O [I-75, 2-Hydroxy-5-(4,7,8-trichloroquinolin-2-yl)benzoic acid]",< 4.52
7,"O=C(CO)N1CCN(c2cc(-n3ccnc3)c3ccc(Cl)cc3n2)CC1 [I-77, 1-(4-(7-chloro-4-(1H-imidazol-1-yl)quinolin-2-yl)piperazin-1-yl)-2-hydroxyethan-1-one]",< 4.52
8,"CS(=O)(=O)N1CCN(c2cc(-n3ccnc3)c3ccc(Cl)cc3n2)CC1 [I-78, 7-chloro-4-(1H-imidazol-1-yl)-2-(4-(methylsulfonyl)piperazin-1-yl) quinoline]",< 4.52
9,O=C(O)C1CN(c2cc(-n3ccnc3)c3ccc(Cl)cc3n2)CCS1 (centres unmarked) [I-89],4.52 to 5.70
10,Clc1ccc2c(-n3ccnc3)cc(N3CCOCC3)nc2c1Cl [I-95],4.52 to 5.70
11,OCC1COCCN1c1cc(-n2ccnc2)c2ccc(Cl)c(Cl)c2n1 (centres unmarked) [I-97],4.52 to 5.70
12,OCC1CN(c2cc(-n3ccnc3)c3ccc(Cl)c(Cl)c3n2)CCO1 (centres unmarked) [I-98],4.52 to 5.70
13,OCC1CN(c2cc(-n3ccnc3)c3ccc(Cl)cc3n2)CCCO1 (centres unmarked) [I-99],4.52 to 5.70
14,O=S(=O)(NC1CCCN(c2cc(-n3ccnc3)c3ccc(Cl)cc3n2)C1)c1cccnc1 (centres unmarked) [I-102],4.52 to 5.70
15,Cn1cnc(S(=O)(=O)NC2CCCN(c3cc(-n4ccnc4)c4ccc(Cl)cc4n3)C2)c1 (centres unmarked) [I-103],4.52 to 5.70
16,"NC(=O)NC1CCCN(c2cc(-n3ccnc3)c3ccc(Cl)cc3n2)C1 (centres unmarked) [I-104, 1-(1-(7-chloro-4-(1H-imidazol-1-yl)quinolin-2-yl)piperidin-3-yl)urea]",4.52 to 5.70
17,"CS(=O)(=O)NC1CCCN(c2cc(-n3ccnc3)c3ccc(Cl)cc3n2)C1 (centres unmarked) [I-105, N-(1-(7-chloro-4-(1H-imidazol-1-yl)quinolin-2-yl)piperidin-3-yl)methanesulfonamide]",4.52 to 5.70
18,"O=C(CO)NC1CCCN(c2cc(-n3ccnc3)c3ccc(Cl)cc3n2)C1 (centres unmarked) [I-106, N-(1-(7-chloro-4-(1H-imidazol-1-yl)quinolin-2-yl)piperidin-3-yl)-2-hydroxyacetamide]",4.52 to 5.70

row,Compound,pIC50
1,O=S(=O)(NC1CCCN(c2cc(-n3ccnc3)c3ccc(Cl)cc3n2)C1)c1ccccc1 (centres unmarked) [I-107],< 4.52
2,"NC1CCCN(c2cc(-n3ccnc3)c3ccc(Cl)cc3n2)C1 (centres unmarked) [I-108, 1-(7-chloro-4-(1H-imidazol-1-yl)quinolin-2-yl)piperidin-3-amine]",< 4.52
3,Cn1cc(S(=O)(=O)NC2CCCN(c3cc(-n4ccnc4)c4ccc(Cl)cc4n3)C2)cn1 (centres unmarked) [I-109],< 4.52
4,O=P(O)(O)CC1CCCN(c2cc(-n3ccnc3)c3ccc(Cl)c(Cl)c3n2)C1 (centres unmarked) [I-114],4.52 to 5.70
5,CS(=O)(=O)C1CCCN(c2cc(-n3ccnc3)c3ccc(Cl)cc3n2)C1 (centres unmarked) [I-117],4.52 to 5.70
6,"NS(=O)(=O)O[C@H]1CCCN(c2cc(-n3ccnc3)c3ccc(Cl)c(Cl)c3n2)C1 [I-119, (S)-1-(7,8-dichloro-4-(1H-imidazol-1-yl)quinolin-2-yl)piperidin-3-yl sulfamate]",4.52 to 5.70
7,Clc1ccc2c(-n3ccnc3)cc(N3CCCCC3)nc2c1Cl [I-121],4.52 to 5.70
8,O=C(O)C1CCCN(c2cc(-n3ccnc3)c3ccc(Cl)cc3n2)C1 (centres unmarked) [I-122],4.52 to 5.70
9,"O=C(O)CC1CCCN(c2cc(-n3ccnc3)c3ccc(Cl)cc3n2)C1 (centres unmarked) [I-123, 2-(1-(7-chloro-4-(1H-imidazol-1-yl)quinolin-2-yl)piperidin-3-yl)acetic acid]",4.52 to 5.70
10,COC(=O)C1CCCN(c2cc(-n3ccnc3)c3ccc(Cl)cc3n2)C1 (centres unmarked) [I-126],4.52 to 5.70
11,O=C(O)C1CCN(c2cc(-n3ccnc3)c3ccc(Cl)cc3n2)CC1 [I-127],4.52 to 5.70
12,O=C(O)[C@@H]1CCCCN1c1cc(-c2cn[nH]c2)c2ccc(Cl)c(Cl)c2n1 [I-128],4.52 to 5.70
13,O=C(O)[C@@H]1CN(c2cc(-n3ccnc3)c3ccc(Cl)cc3n2)CC[C@H]1O [I-130],4.52 to 5.70
14,COC(=O)C1CCN(c2cc(-n3ccnc3)c3ccc(Cl)cc3n2)CC1 [I-131],4.52 to 5.70
15,OC1CCN(c2cc(-n3ccnc3)c3ccc(Cl)c(Cl)c3n2)CC1 [I-132],4.52 to 5.70
16,O[C@@H]1CCCN(c2cc(-n3ccnc3)c3ccc(Cl)c(Cl)c3n2)C1 [I-134],4.52 to 5.70
17,O=C(O)C1CC(O)CN(c2cc(-n3ccnc3)c3ccc(Cl)cc3n2)C1 (centres unmarked) [I-135],< 4.52
18,O=C(O)[C@@H]1CN(c2cc(-n3ccnc3)c3ccc(Cl)cc3n2)CC[C@@H]1O [I-136],4.52 to 5.70

# Further lines, results first:
row,pIC50,Compound
1,4.52 to 5.70,"Clc1ccc2c(-n3ccnc3)cc(N3CCNCC3)nc2c1 [I-76, 7-chloro-4-(1H-imidazol-1-yl)-2-(piperazin-1-yl)quinoline]"
2,> 5.70,"O=C(O)C1CN(c2cc(-n3ccnc3)c3ccc(Cl)c(Cl)c3n2)CCN1 (centres unmarked) [I-79, 4-(7,8-Dichloro-4-(1H-imidazol-1-yl)quinolin-2-yl)piperazine-2-carboxylic acid]"
3,> 5.70,CCN1CCN(c2cc(-n3ccnc3)c3ccc(Cl)c(Cl)c3n2)CC1C(=O)O (centres unmarked) [I-80]
4,> 5.70,O=C(O)C1CN(c2cc(-n3ccnc3)c3ccc(Cl)c(Cl)c3n2)CCN1CCO (centres unmarked) [I-81]
5,> 5.70,"CN1CCN(c2cc(-n3ccnc3)c3ccc(Cl)c(Cl)c3n2)CC1C(=O)O (centres unmarked) [I-82, 4-(7,8-Dichloro-4-(1H-imidazol-1-yl)quinolin-2-yl)-1-methylpiperazine-2-carboxylic acid]"
6,4.52 to 5.70,"O=C(O)C1CN(c2cc(-n3ccnc3)c3ccc(Cl)c(Cl)c3n2)CCN1C(=O)CO (centres unmarked) [I-83, 4-(7,8-dichloro-4-(1H-imidazol-1-yl)quinolin-2-yl)-1-(2-hydroxyacetyl)piperazine-2-carboxylic acid]"
7,4.52 to 5.70,O=C1CN(c2cc(-n3ccnc3)c3ccc(Cl)cc3n2)CC(C(=O)O)N1 (centres unmarked) [I-84]
8,> 5.70,O=C1CN(c2cc(-n3ccnc3)c3ccc(Cl)cc3n2)CCN1 [I-85]
9,4.52 to 5.70,O=S1(=O)CCN(c2cc(-n3ccnc3)c3ccc(Cl)c(Cl)c3n2)CC1 [I-87]
10,4.52 to 5.70,O=C1CCN(c2cc(-n3ccnc3)c3ccc(Cl)c(Cl)c3n2)CCN1 [I-88]
11,> 5.70,O=C(O)C1CN(c2cc(-n3ccnc3)c3ccc(Cl)c(Cl)c3n2)CCO1 (centres unmarked) [I-91]
12,> 5.70,O=C(O)[C@@H]1COCCN1c1cc(-c2cn[nH]c2)c2ccc(Cl)c(Cl)c2n1 [I-93]
13,> 5.70,O=C(O)CC1COCCN1c1cc(-n2ccnc2)c2ccc(Cl)c(Cl)c2n1 (centres unmarked) [I-94]
14,> 5.70,NS(=O)(=O)OCC1CN(c2cc(-n3ccnc3)c3ccc(Cl)c(Cl)c3n2)CCO1 (centres unmarked) [I-96]
15,> 5.70,O=S(=O)(NC1CCCN(c2cc(-n3ccnc3)c3ccc(Cl)cc3n2)C1)C1CC1 (centres unmarked) [I-100]
16,> 5.70,O=S(=O)(NC1CCCN(c2cc(-n3ccnc3)c3ccc(Cl)cc3n2)C1)c1ncc[nH]1 (centres unmarked) [I-101]
17,> 5.70,O=[PH](O)OCC1CCCN(c2cc(-n3ccnc3)c3ccc(Cl)c(Cl)c3n2)C1 (centres unmarked) [I-110]
18,> 5.70,"O=[PH](O)OC1CCCN(c2cc(-n3ccnc3)c3ccc(Cl)c(Cl)c3n2)C1 (centres unmarked) [I-111, 1-(7,8-dichloro-4-(1H-imidazol-1-yl)quinolin-2-yl)piperidin-3-yl hydrogen phosphonate]"
19,> 5.70,"O=P(O)(O)OC1CCCN(c2cc(-n3ccnc3)c3ccc(Cl)c(Cl)c3n2)C1 (centres unmarked) [I-112, 1-(7,8-dichloro-4-(1H-imidazol-1-yl)quinolin-2-yl)piperidin-3-yl dihydrogen phosphate]"
20,> 5.70,"O=P(O)(O)OCC1CCCN(c2cc(-n3ccnc3)c3ccc(Cl)c(Cl)c3n2)C1 (centres unmarked) [I-113, (1-(7,8-dichloro-4-(1H-imidazol-1-yl)quinolin-2-yl)piperidin-3-yl)methyl dihydrogen phosphate]"
21,> 5.70,O=S(=O)(O)C1CCCN(c2cc(-n3ccnc3)c3ccc(Cl)c(Cl)c3n2)C1 (centres unmarked) [I-115]
22,> 5.70,NS(=O)(=O)OCC1CCCN(c2cc(-n3ccnc3)c3ccc(Cl)c(Cl)c3n2)C1 (centres unmarked) [I-118]
23,> 5.70,"OB(O)C1CCCN(c2cc(-n3ccnc3)c3ccc(Cl)c(Cl)c3n2)C1 (centres unmarked) [I-120, (1-(7,8-Dichloro-4-(1H-imidazol-1-yl)quinolin-2-yl)piperidin-3-yl)boronic acid]"
24,> 5.70,O=C(O)C1(O)CCCN(c2cc(-n3ccnc3)c3ccc(Cl)c(Cl)c3n2)C1 (centres unmarked) [I-124]
25,> 5.70,"O=C(CO)NC1(C(=O)O)CCCN(c2cc(-n3ccnc3)c3ccc(Cl)c(Cl)c3n2)C1 (centres unmarked) [I-125, 1-(7,8-dichloro-4-(1H-imidazol-1-yl)quinolin-2-yl)-3-(2-hydroxyacetamido) piperidine-3-carboxylic acid]"
26,> 5.70,O[C@H]1CCCN(c2cc(-n3ccnc3)c3ccc(Cl)c(Cl)c3n2)C1 [I-133]
